Data from the pKa sets of Baltruschat and Czodrowski (2020).

Details: acidic group

SMILES | pKa
Oc1cc(Cl)c(Cl)c(Cl)c1 | 7.7
O/C(=C/c1ccccn1)c1ccccc1 | 12.2
N#Cc1ccccc1-c1nnn[nH]1 | 3.55
CC(c1cccc(C(F)(F)F)c1)[N+](=O)[O-] (stereo unspecified) | 6.96
Cc1cc(O)ccc1[N+](C)(C)C | 8.34
COc1ccc(/C(=C\C(=O)c2ccc(S(=O)(=O)[O-])cc2)CC(=O)c2ccc(S(=O)(=O)[O-])cc2)cc1S(=O)(=O)[O-] | 10.7
c1ccc2c(c1)[nH]c1c2cc[n+]2cc3c(cc12)CCCC3 | 10.6
O=NCC(=O)c1ccncc1 | 7.8
O=C(O)C(CO)[NH2+]Cc1ccccc1O (stereo unspecified) | 2.1
CC(C)(/C=C/C(=O)[O-])c1ccccc1O | 10.7
O=c1oc2cc(O)ccc2cc1-c1nc2ccccc2s1 | 7.02
O=C(O)c1ccc2[nH]ccc2c1 | 4.1
CCCC(C)C1(CC)C(=O)NC(=O)NC1=O (stereo unspecified) | 8.08
[NH3+]CC[SeH] | 5
CCC(CC(C)C)OO (stereo unspecified) | 12.8
C=C[C@]1(O)C[NH+]2CC[C@H]1C[C@H]2[C@H](O)c1cc(O)[nH+]c2ccccc12 | 2.76
Cc1cc(Br)ccc1C(=O)O | 3.77
CC/C([N+](=O)[O-])=[N+](/[O-])O | 4.1
Cc1ccc(C(=O)O)[nH]1 | 5
O=C1C=CC(=O)/C(=N/O)N1 | 8.4
O=C(O)c1ccsc1 | 4.03

SMILES | pKa
Oc1ccc2c(c1)CCC2 | 10.3
Cc1nn(-c2ccccc2)cc1C(=O)O | 4.58
[O-]/N=C1\CCCCC\C1=N/O | 12.3
Oc1cccc2c1-c1cccc(O)c1-2 | 8.35
CC(C)(C)C1CCn2nnnc2C(C(=O)O)C1 (stereo unspecified) | 4.4
[O-]c1ccc(Nc2ccc(O)cc2)cc1 | 10.6
Cc1cccc(C(C)[N+](=O)[O-])c1 (stereo unspecified) | 7.49
C=CC#CCC(=O)O | 3.41
Cc1[nH]ccc1C(=O)O | 5.8
O=S(=O)(Nc1cccc(C(F)(F)F)c1)C(F)(F)F | 3.5
CC(C)(C)c1cc(/C=C/C(=O)[O-])cc(C(C)(C)C)c1O | 11.1
O=C1C[C@@H](C(=O)O)[C@@H](C(=O)O)O1 | 2.26
O=C1C(O)=C(/C=C/c2ccccc2)C(=O)c2ccccc21 | 4.44
O=C(O)CC[C@@H]1NC(=O)CNC1=O | 4.36
O=C1CC(=O)CS(=O)(=O)C1 | 2.72
O[n+]1c2ccccc2cc2ccccc21 | 1.37
Oc1ccccc1-c1ccccn1 | 10.6
CC(=N\O)/C(CO)=N/O | 10.1
CC(C)=CCC1C(=O)C(CC=C(C)C)(CC=C(C)C)C(O)(C(=O)[O-])C1=O (stereo unspecified) | 9.7
O=C([O-])C(CO)NCc1ccccc1O (stereo unspecified) | 10.4
O=[N+]([O-])CCc1ccccc1 | 8.55

SMILES | pKa
O=C1CCCC(=O)C1 | 5.26
O=C(O)C[Se]c1cccc([N+](=O)[O-])c1 | 3.55
COc1ccc2c(c1O)-c1c3c(cc4c1[C@H](C2)N(C)CC4)OCO3 | 10.1
CNc1nc2ncncc2[nH]1 | 9.56
O=C(CC(=O)c1ccccc1)Nc1cccc([N+](=O)[O-])c1 | 9.54
C[NH+](C)Cc1cc([N+](=O)[O-])ccc1O | 5.75
C=CC(=O)O | 4.25
Oc1ccc2ccccc2[nH+]1 | 0.31
CCNC(=O)/C=C(/[70SH])c1ccccc1 | 4.73
Oc1c(Cl)ccc(Cl)c1Cl | 6.12
CC[Si](C)(C)CC(=O)O | 5.4
[O-]/N=C1\CCCC\C1=N/O | 12.6
Cc1[nH]c(C(=O)[O-])c(C(=O)O)[nH+]1 | 4.54
CCCP(=O)(CCC)CCC | 12.2
C[n+]1c2ccccc2cc2c(N)cccc21 | 10
C=C(C)C(C)(C(N)=O)C(=O)O (stereo unspecified) | 3.42
CCCc1ncnc2c(O)cccc12 | 8.82
Oc1ccc2cccc(Cl)c2c1 | 8.69
O=C(NO)c1cccc2ccccc12 | 7.7
Cc1cc(C[NH3+])c(O)c(C[NH3+])c1 | 7
Clc1nnn[nH]1 | 2.07

SMILES | pKa
Cc1cc(/N=N/c2ccc(S(N)(=O)=O)cc2)cc(C(=O)O)c1O | 2.25
CCc1n[nH]c(CC)n1 | 10.2
CC1(C)O[C@@H]2CC(=O)OC[C@]23[C@@H]1CC(=O)[C@@]1(C)[C@H]3C[C@](C)(CC2CCOC2)C[C@]12O[C@H]2C(=O)O (stereo partly specified) | 2.7
O=C(O)CS/C=C/c1ccccc1 | 3.5
O=C(O)C(CO)[NH2+]Cc1cc([N+](=O)[O-])ccc1O (stereo unspecified) | 2.15
Nc1ccc(O)cc1O | 9.3
NCCNC(=O)c1ccccc1 | 9.13
Nc1ccc(S(=O)(=O)Nc2nccs2)cc1/N=N/c1ccccc1 | 5.85
Oc1cccc2nccnc12 | 8.8
CCC(P)C(=O)O (stereo unspecified) | 4.08
O=C(O)CS | 3.38
O=[N+]([O-])c1cccc(-c2nnn[nH]2)c1 | 3.25
Cc1c(Cl)cccc1C(=O)O | 3.43
CCCCC1(CC)C(=O)NC(=S)NC1=O | 7.37
CC(O)C(C(=O)O)c1ccc(C2CCCCC2)cc1 (stereo unspecified) | 4.21
C[NH+]1CCC(n2nc(-c3ccccc3)c(Cc3ccccc3)c2O)CC1 | 6.73
O=C([O-])[C@@H]1O[C@H](Oc2ccc3[nH+]c(O)ccc3c2)[C@@H](O)[C@H](O)[C@H]1O | 3.75
O=C(c1ccccc1)c1ccccc1O | 9.3
Cc1nn(-c2ccccc2)c(O)c1-c1ccccc1 | 11.9
O=C(Oc1ccc(Cl)cc1)C1c2ccccc2-c2ccccc21 | 10.3
NC(=O)NOCC(=O)O | 2.6

Same assay, conditions: basic group

SMILES | pKa
c1ccc(-c2ccc3nccn3n2)cc1 | 4.71
CC(C)NNC1CC[NH+](C)CC1 | 6.32
N#CN | 1.1
CCCCNC | 10.8
COc1ccc(C2CCCN2C)cc1 (stereo unspecified) | 8.9
CN1C[C@H](C(=O)[O-])C[C@@]2(O)c3cccc4[nH]cc(c34)C[C@@H]12 | 8.33
O/C(=C/c1ccccn1)c1ccccc1 | 3.57
CC(=O)OCCN(C)C | 8.3
Cc1nc2ccccc2c(NCCC[NH+](C)C)c1[N+](=O)[O-] | 5.35
COc1ccc(OC)nn1 | 1.61
c1ccc2ncncc2c1 | 3.51
CCOC(=O)COc1ccc(C(=O)c2ccc([O-])c(CN)c2)c(Cl)c1Cl | 10.6
Cc1cc(=O)n(C)n1-c1ccccc1 | 2.4
CN(C)C(C)(C)C | 10.5
O=C([O-])C(CO)NCc1cc(Cl)ccc1[O-] (stereo unspecified) | 10.2
CCCCCC/[NH+]=C/c1c(C)cnc(C)c1O | 3.39
CN(C)[C@H]1CC[C@@H](C)CC1 | 10.5
CN1CCC(NN)CC1 | 8.85
COc1ccnnc1 | 3.7
Cc1cc(O)n(-c2nc(C)c(C)c([O-])n2)n1 | 10.3
CCCCCCN | 10.7
CC(C)(N)CO | 9.74

SMILES | pKa
Cc1cccc(Nc2ccccc2)c1 | 0.92
Cc1nc(C)nc(N)n1 | 3.6
CCCCCCCCCCCCCCN(CCO)CC(O)CC (stereo unspecified) | 6.1
CC(C)[NH2+]CCN | 7.7
CNCCC(=O)c1ccccc1 | 9
CCCCN(CCCC)c1ccccc1 | 6.41
CN1CCCCCC1 | 11
CCCCCN | 10.7
c1c[nH+]c(Cc2nc(Cc3c[nH]c[nH+]3)c[nH]2)[nH]1 | 3.94
COc1ccc([N+](=O)[O-])c(CN)c1 | 8.72
Cc1ccc2c(c1)cc(C)n2C | 0.5
CCCCCCCCN1CCCCC1 | 8.28
Cc1ccnc(/N=C/c2ccc([N+](=O)[O-])cc2)n1 | 3.66
CN1CC=CC1 | 9.92
C1=C(c2nc3ccccc3s2)C2CCN1CC2 | 7.4
C=CC(C)(C)NC(C)(C)C=C | 10.1
CC(O)CN(C)CCO (stereo unspecified) | 8.69
CCCCNCC[NH2+]CCCC | 7.46
Oc1ccccc1-c1ccccn1 | 4.2
C=Cc1ccccn1 | 4.92
Cc1ccc2c(c1)sc(-c1ccc(N(C)C)cc1)[n+]2C | 2.69
NCCCCCCCC(=O)[O-] | 11

SMILES | pKa
O=C(CCCN1CCC(O)(c2ccccc2)CC1)c1ccccc1 | 8.4
CCCC[NH2+]CCN | 7.53
CNC(=O)NC | 1.02
O=C([O-])C(CO)NCc1ccccc1O (stereo unspecified) | 8.22
CCc1cnnc(C)c1 | 4.17
CC(C)(N)C(=O)O | 10.2
O=C(Cc1ccccc1Nc1c(Cl)cccc1Cl)OCCCCN1CCOCC1 | 8.4
CCCCCCCCNCCC(=O)[O-] | 10.6
CNc1nc2ncncc2[nH]1 | 4.78
C[C@H](O)C(=O)C1=Nc2c([O-])nc(N)nc2NC1 | 10.1
Cc1ccc(CNCCN)cc1 | 9.41
C=C(C)C(=O)OCCNCC(C)C | 8.91
Nc1ccc(-c2ccccc2)cc1 | 4.38
CCNCC[Se-] | 10.9
Cc1cnc2c(c1)c(C)cc1c(C)ccnc12 | 5.9
CCCP(=O)(CCC)CCC | 4.9
CCN(CC)CCSC(C)C | 9.32
Nc1ccccc1NC(=O)c1ccc([N+](=O)[O-])cc1 | 3.01
COc1ccc2c3c1O[C@H]1[C@@H](O)C=C[C@H]4[C@@H](C2)N(CCC#N)CC[C@@]341 | 5.68
CN(C)CCCCCCCCCNC(=O)/C=N/[O-] | 10.5
CNO | 6.05
O=P([O-])([O-])c1cn2c(n1)[C@@H](O)[C@H](O)[C@@H](O)[C@@H]2CO | 7.69

SMILES | pKa
CCN(CC)CCSC | 9.62
C=C(C)C(N)O (stereo unspecified) | 8
CCN(CC)/N=C(\C)N | 10.6
Cc1cc(C)c(C)nn1 | 4.81
CC(C)CNCC(=O)c1ccc(O)cc1 | 7.74
Nc1ccc(O)cc1O | 5.7
Oc1cccc2nccnc12 | 0.85
[O-]c1c(Cl)cc(Cl)c(Cl)c1CN1CCCCC1 | 10.3
CCC(O)CN(CCO)C(C)(C)C (stereo unspecified) | 9.4
FC(F)(F)c1cc(-c2ccccc2)nnc1NCCN1CCOCC1 | 6.75
CNc1nc(C)nc2nc[nH]c12 | 5.08
Nc1cnccn1 | 3.14
Cc1cc(C)ncn1 | 2.7
NCC(O)CN | 9.64
CCCCc1nc(N)c2ncsc2n1 | 3.49
CCCC(=O)C1(c2cccc(O)c2)CCN(C)CC1 | 8.62
CCNc1ncnc2c1cnn2C | 4.24
OCCN1CC[NH+](CCCN2c3ccccc3Sc3ccc(Cl)cc32)CC1 | 3.59
CCN(CC)CC(=O)NC1CCc2ccccc21 (stereo unspecified) | 8.19
Nc1ncnc([O-])c1N | 9.86
Brc1ccc2c(c1)CCN2 | 3.7
